Each molecule was assayed on rat small-intestinal brush border membrane vesicles (assay: Inhibitory effect on 33PO4 uptake into rat small-intestinal brush border membrane vesicles (rapid filtration method)). Conditions: 33PO4 uptake into rat small-intestinal BBMVs; test compound 1 µM; reacted for 60 seconds.
Assay type: biochemical
Method in brief: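 Uptake of ^33PO4 was measured by rapid filtration and liquid scintillation counting of filter-retained vesicles, after quenching with ice-cold 110 mM NaCl/1 mM KH2PO4/10 mM HEPES pH 7.5. Vesicles were brush border membranes from the upper small intestine of female Wistar rats aged 4–5 weeks.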

Going from `CN1N(Cc2ccc(OCCN3CCOCC3)c(F)c2F)C(=O)C(C(=O)Nc2ccc(C(F)(F)F)cc2-c2ccc(C(F)(F)F)nc2)=C(O)C12CCC2` [Example 282] to `CN1N(Cc2ccc(OCCN3CCOCC3)c(F)c2F)C(=O)C(C(=O)Nc2ccc(C(F)(F)F)cc2-c2ccc(C(F)(F)F)nc2)=C(O)C12CCCC2` [Example 287], the “Rate of uptake inhibition (%) (1 µM)” value falls from 55% to 47%.

First: Cc1c(C#N)ncnc1-c1cc(C(F)(F)F)ccc1NC(=O)C1=C(O)C2(CCC2)N(C)N(Cc2ccc(OCCN3CCOCC3)c(F)c2F)C1=O [Example 283]
Second: Cc1c(-c2cc(C(F)(F)F)ccc2NC(=O)C2=C(O)C3(CCC3)N(C)N(Cc3ccc(OCCN4CCOCC4)c(F)c3F)C2=O)ncnc1C(F)(F)F [Example 285]
The “Rate of uptake inhibition (%) (1 µM)” value of the first is lower: 45% for the first, 62% for the second.

Going from `CN1N(Cc2ccc(OCCN3CCOCC3)c(F)c2F)C(=O)C(C(=O)Nc2ccc(C(F)(F)F)cc2-c2ncnc(C(F)(F)F)c2Cl)=C(O)C12CCC2` [Example 284] to `Cc1c(-c2cc(C(F)(F)F)ccc2NC(=O)C2=C(O)C3(CCCC3)N(C)N(Cc3ccc(OCCN4CCOCC4)c(F)c3F)C2=O)ncnc1C(F)(F)F` [Example 290], the “Rate of uptake inhibition (%) (1 µM)” value rises from 46% to 59%.

Compared with `CN1N(Cc2ccc(OCCN3CCOCC3)c(F)c2F)C(=O)C(C(=O)Nc2ccc(Cl)cc2-c2cc(C(F)(F)F)ncn2)=C(O)C12CCCC2` [Example 286], `CN1N(Cc2ccc(OCCN3CCOCC3)c(F)c2F)C(=O)C(C(=O)Nc2ccc(Cl)cc2-c2cc(C(F)(F)F)ncn2)=C(O)C12CCCCC2` [Example 297] is lower in “Rate of uptake inhibition (%) (1 µM)” value: 50% for the first, 36% for the second.

Compared with `CN1N(Cc2ccc(OCCN3CCOCC3)c(F)c2F)C(=O)C(C(=O)Nc2ccc(Cl)cc2-c2ccc(C(F)(F)F)nc2)=C(O)C12CCCC2` [Example 288], `CSc1ccc(-c2cc(C(F)(F)F)ccc2NC(=O)C2=C(O)C3(CCCC3)N(C)N(Cc3ccc(OCCN4CCOCC4)c(F)c3F)C2=O)cn1` [Example 289] is lower in “Rate of uptake inhibition (%) (1 µM)” value: 61% for the first, 55% for the second.

Compared with `CCC1(CC)C(O)=C(C(=O)Nc2ccc(C(F)(F)F)cc2-c2cc(C(F)(F)F)ncn2)C(=O)N(Cc2ccc(OCCN3CCOCC3)c(F)c2F)N1C` [Example 291], `CN1N(Cc2ccc(OCCN3CCOCC3)c(F)c2F)C(=O)C(C(=O)Nc2ccc(C(F)(F)F)cc2-c2cc(C(F)(F)F)ncn2)=C(O)C1(C)C` [Example 313, 2-[[2,3-Difluoro-4-(2-morpholin-4-ylethoxy)phenyl]methyl]-5-hydroxy-1,6,6-trimethyl-3-oxo-N-[4-(trifluoromethyl)-2-[6-(trifluoromethyl)pyrimidin-4-yl]phenyl]pyridazine-4-carboxamide] is higher in “Rate of uptake inhibition (%) (1 µM)” value: 47% for the first, 65% for the second.

Compared with `CCC1(CC)C(O)=C(C(=O)Nc2ccc(Cl)cc2-c2cc(C(F)(F)F)ncn2)C(=O)N(Cc2ccc(OCCN3CCOCC3)c(F)c2F)N1C` [Example 292], `CCC1(CC)C(O)=C(C(=O)Nc2ccc(Cl)cc2-c2ccc(C(F)(F)F)nc2)C(=O)N(Cc2ccc(OCCN3CCOCC3)c(F)c2F)N1C` [Example 294] is lower in “Rate of uptake inhibition (%) (1 µM)” value: 44% for the first, 40% for the second.

Going from `CCC1(CC)C(O)=C(C(=O)Nc2ccc(C(F)(F)F)cc2-c2ccc(C(F)(F)F)nc2)C(=O)N(Cc2ccc(OCCN3CCOCC3)c(F)c2F)N1C` [Example 293] to `CN1N(Cc2ccc(OCCN3CCOCC3)c(F)c2F)C(=O)C(C(=O)Nc2ccc(C(F)(F)F)cc2-c2ccc(C(F)(F)F)nc2)=C(O)C1(C)C` [Example 314, 2-[[2,3-Difluoro-4-(2-morpholin-4-ylethoxy)phenyl)methyl]-5-hydroxy-1,6,6-trimethyl-3-oxo-N-[4-(trifluoromethyl)-2-[6-(trifluoromethyl)pyridin-3-yl]phenyl]pyridazine-4-carboxamide], the “Rate of uptake inhibition (%) (1 µM)” value rises from 47% to 72%.

Compared with `CN1N(Cc2ccc(OCCN3CCOCC3)c(F)c2F)C(=O)C(C(=O)Nc2ccc(C(F)(F)F)cc2-c2cc(C(F)(F)F)ncn2)=C(O)C12CCCCC2` [Example 295], `CN1N(Cc2ccc(OCCN3CCOCC3)c(F)c2F)C(=O)C(C(=O)Nc2ccc(C(F)(F)F)cc2-c2cc(C(F)(F)F)ncn2)=C(O)C12CCCC2` [Example 318, 7-[[2,3-Difluoro-4-(2-morpholin-4-ylethoxy)phenyl]methyl]-10-hydroxy-6-methyl-8-oxo-N-[4-(trifluoromethyl)-2-[6-(tritluoromethyl)pyrimidin-4-yl]phenyl]-6,7-diazaspiro[4.5]dec-9-ene-9-carboxamide] is higher in “Rate of uptake inhibition (%) (1 µM)” value: 21% for the first, 43% for the second.

First: Cc1c(-c2cc(C(F)(F)F)ccc2NC(=O)C2=C(O)C3(CCCCC3)N(C)N(Cc3ccc(OCCN4CCOCC4)c(F)c3F)C2=O)ncnc1C(F)(F)F [Example 296]
Second: CN1N(Cc2ccc(OCCN3CCOC(=O)C3)c(F)c2F)C(=O)C(C(=O)Nc2ccc(C(F)(F)F)cc2-c2cc(C(F)(F)F)ncn2)=C(O)C12CCC2 [Example 337, 8-[[2,3-Difluoro-4-[2-(2-oxomorpholin-4-yl)ethoxy]phenyl]methyl]-5-hydroxy-9-methyl-7-oxo-N-[4-(trifluoromethyl)-2-[6-(trifluoromethyl)pyrimidin-4-yl]phenyl)-8.9-diazaspiro [3. 5]non-5-ene-6-carboxamide]
The “Rate of uptake inhibition (%) (1 µM)” value of the first is lower: 17% for the first, 47% for the second.

Going from `CN1N(Cc2ccc(OCCN3CCOCC3)c(F)c2F)C(=O)C(C(=O)Nc2ccc(Br)c(C(F)(F)F)n2)=C(O)C12CCCCC2` [Example 298] to `CN1N(Cc2ccc(OCC(=O)N3CCOCC3)c(F)c2F)C(=O)C(C(=O)Nc2ccc(C(F)(F)F)cc2-c2cc(C(F)(F)F)ncn2)=C(O)C12CCC2` [Example 336], the “Rate of uptake inhibition (%) (1 µM)” value rises from 10% to 44%.

Compared with `CC1(C)C(O)=C(C(=O)Nc2ccc(C(F)(F)F)cc2-c2cc(C(F)(F)F)ncn2)C(=O)N(Cc2cccc(F)c2F)N1c1ccccc1` [Example 299], `CN1N(Cc2cccc(F)c2F)C(=O)C(C(=O)Nc2ccc(C(F)(F)F)cc2-c2cc(C(F)(F)F)ncn2)=C(O)C12CCC2` [Example 300] is higher in “Rate of uptake inhibition (%) (1 µM)” value: 45% for the first, 74% for the second.

First: CN1N(Cc2cccc(F)c2F)C(=O)C(C(=O)Nc2ccc(C(F)(F)F)cc2-c2ccc(C(F)(F)F)nc2)=C(O)C12CCC2 [Example 301]
Second: CN1N(Cc2cccc(F)c2F)C(=O)C(C(=O)Nc2cc(C(F)(F)F)ccc2-c2ccc(C(F)(F)F)nc2)=C(O)C1(C)C [Example 307]
The “Rate of uptake inhibition (%) (1 µM)” value of the first is higher: 79% for the first, 41% for the second.

Going from `COc1cc(-c2cc(C(F)(F)F)ccc2NC(=O)C2=C(O)C(C)(C)N(C)N(Cc3cccc(F)c3F)C2=O)cnc1C#N` [Example 302] to `Cc1c(C#N)ncnc1-c1cc(C(F)(F)F)ccc1NC(=O)C1=C(O)C(C)(C)N(C)N(Cc2cccc(F)c2F)C1=O` [Example 311], the “Rate of uptake inhibition (%) (1 µM)” value falls from 79% to 65%.

First: CN1N(Cc2cccc(F)c2F)C(=O)C(C(=O)Nc2ccc(C(F)(F)F)cc2-c2cc(C#N)ncn2)=C(O)C1(C)C [Example 303]
Second: CN1N(Cc2cccc(F)c2F)C(=O)C(C(=O)Nc2ccc(C(F)(F)F)cc2-c2ncnc(C#N)c2Cl)=C(O)C1(C)C [Example 312]
The “Rate of uptake inhibition (%) (1 µM)” value of the first is lower: 42% for the first, 74% for the second.

Going from `CN1N(Cc2cccc(F)c2F)C(=O)C(C(=O)Nc2ccc(C(F)(F)F)nc2-c2ccc(C(F)(F)F)nc2)=C(O)C1(C)C` [Example 304] to `CN1N(Cc2cccc(F)c2F)C(=O)C(C(=O)Nc2ccc(C(F)(F)F)nc2-c2cncc(C(F)(F)F)c2)=C(O)C1(C)C` [Example 306], the “Rate of uptake inhibition (%) (1 µM)” value rises from 51% to 58%.

First: CN1N(Cc2cccc(F)c2F)C(=O)C(C(=O)Nc2ccc(C(F)(F)F)cc2-c2cncc(C(F)(F)F)c2)=C(O)C1(C)C [Example 305]
Second: CSc1ccc(-c2cc(C(F)(F)F)ccc2NC(=O)C2=C(O)C(C)(C)N(C)N(Cc3cccc(F)c3F)C2=O)cn1 [Example 310]
The “Rate of uptake inhibition (%) (1 µM)” value of the first is higher: 66% for the first, 63% for the second.

First: CN1N(Cc2cccc(F)c2F)C(=O)C(C(=O)Nc2ccc(C(F)(F)F)cc2-c2ccc(S(=O)(=O)N(C)C)cc2)=C(O)C1(C)C [Example 308]
Second: CN1N(Cc2cccc(F)c2F)C(=O)C(C(=O)Nc2ccc(Cl)cc2-c2ccc(C(F)(F)F)nc2)=C(O)C1(C)C [Example 309]
The “Rate of uptake inhibition (%) (1 µM)” value of the first is lower: 63% for the first, 68% for the second.

Compared with `CN1N(Cc2ccc(C#CCN3CCOCC3)c(F)c2F)C(=O)C(C(=O)Nc2ccc(C(F)(F)F)cc2-c2cc(C(F)(F)F)ncn2)=C(O)C1(C)C` [Example 315, 2-[[2,3-Difluoro-4-(3-morpholin-4-ylprop-1-ynil)phenyl]methyl]-5-hydroxy-1,6,6-trimethyl-3-oxo-N-[4-(trifluoromethyl)-2-[6-(trifluoromethyl)pyrimidin-4-yl]phenyl]pyridazine-4-carboxamide], `CN1N(Cc2ccc(C#CCN3CCOCC3)c(F)c2F)C(=O)C(C(=O)Nc2ccc(Cl)cc2-c2cc(C(F)(F)F)ncn2)=C(O)C1(C)C` [Example 316, N-[4-Chloro-2-[6-(trifluoromethyl)pyrimidin-4-yl]phenyl]-2-[[2,3-difluoro-4-(3-morpholin-4-ylprop-1-ynil)phenyl]methyl]-5-hydroxy-1,6,6-trimethyl-3-oxopyridaxine-4-carboxamide] is higher in “Rate of uptake inhibition (%) (1 µM)” value: 63% for the first, 64% for the second.

First: CN1N(Cc2ccc(OCCCC(=O)O)c(F)c2F)C(=O)C(C(=O)Nc2ccc(C(F)(F)F)cc2-c2cc(C(F)(F)F)ncn2)=C(O)C12CCCC2 [Example 332, 4-[2,3-Difluoro-4-[[10-hydroxy-6-methyl-8-oxo-9-[[4-(trifluoromethyl)-2-[6-(trifluoromethyl)pyrimidin-4-yl]phenyl]carbamoyl]-6,7-diazaspiro[4.5]dec-9-en-7-yl]methyl]phenoxy]butanoate]
Second: CN1N(Cc2ccc(OCCCCCC(=O)O)c(F)c2F)C(=O)C(C(=O)Nc2ccc(C(F)(F)F)cc2-c2cc(C(F)(F)F)ncn2)=C(O)C12CCCC2 [Example 334]
The “Rate of uptake inhibition (%) (1 µM)” value of the first is lower: 3% for the first, 22% for the second.

In the case of `CN1N(Cc2ccc(OCCCCCCC(=O)O)c(F)c2F)C(=O)C(C(=O)Nc2ccc(C(F)(F)F)cc2-c2cc(C(F)(F)F)ncn2)=C(O)C12CCCC2` [Example 335], the “Rate of uptake inhibition (%) (1 µM)” value is reported as 30%.

— patent EP3928779A1 (Chugai Seiyaku Kabushiki Kaisha, priority 2014, dated 2016)
